In assay [1] the test system is A549. The assay can be described thus: cells. The settings on record: Homo sapiens, A549, 72 h.
Description: Antiproliferative activity against human A549 cells assessed as inhibition of cell growth after 72 hrs by MTT assay
Assay [2] has as its system HT-29. Put plainly: cells. The following applies: Homo sapiens, HT-29, 72 h.
Description: Antiproliferative activity against human HT-29 cells assessed as inhibition of cell growth after 72 hrs by MTT assay
Assay [3] is described as follows: Antiproliferative activity against human U87MG cells assessed as inhibition of cell growth after 72 hrs by MTT assay. The class given is functional, cell-based, U-87MG ATCC. The settings on record: U-87 MG. On the technique in general: Tetrazolium assays rely on reduction of a dye to a coloured formazan, in cell work by metabolically active cells.
The nature of assay [4]: Antiproliferative activity against human MKN45 cells assessed as inhibition of cell growth after 72 hrs by MTT assay. The assay is classed as functional, cell-based. The following applies: MKN-45, 72 h.
Assay [5] in a line: cells. The following applies: Homo sapiens, NCI-H460, 72 h.

As a reminder, the IC50 is the concentration at which inhibition is half-maximal. As to `COc1cc2c(Oc3ccc(CC(=O)N/N=C/c4ccccc4)cc3F)ccnc2cc1OCCCN1CCOCC1`, the IC50 in assay [1] turned out to be 0.23 µM; in assay [2] it was 0.41 µM; in assay [3], 0.48 µM; in assay [4] it was 0.82 µM; in assay [5] it was 0.11 µM.
Turning to `COc1cc2c(Oc3ccc(CC(=O)N/N=C(/C)c4ccccc4)cc3F)ccnc2cc1OCCCN1CCOCC1`, the IC50 was 0.35 µM in assay [1]; 0.54 µM in assay [2]; 0.61 µM in assay [3]; 0.97 µM in assay [4]; 0.19 µM in assay [5].
As to `COc1cc2c(Oc3ccc(CC(=O)N/N=C/c4ccccc4)cc3F)ccnc2cc1OCCCN1CCCCC1`, the half-maximal inhibitory concentration (IC50) in assay [1] was found to be 0.4 µM; in assay [2] it was 0.8 µM; in assay [3] it was 1.02 µM; in assay [4], 1.58 µM; in assay [5], 0.22 µM.
Take `COc1cc2c(Oc3ccc(CC(=O)N/N=C(/C)c4ccccc4)cc3F)ccnc2cc1OCCCN1CCCCC1`: the IC50 in assay [1] came to 0.52 µM; in assay [2], 0.97 µM; in assay [3], 1.38 µM; in assay [4] it was 1.99 µM; in assay [5], 0.34 µM.
In the case of `COc1cc2c(Oc3ccc(CC(=O)N/N=C/c4ccccc4)cc3F)ccnc2cc1OCCCN1CCCC1`, the IC50 was found to be 0.14 µM in assay [1]; 0.34 µM in assay [2]; 0.42 µM in assay [3]; 0.72 µM in assay [4]; 0.083 µM in assay [5].
For `COc1cc2c(Oc3ccc(CC(=O)N/N=C(/C)c4ccccc4)cc3F)ccnc2cc1OCCCN1CCCC1`, in that order: 0.28 µM, 0.44 µM, 0.59 µM, 0.76 µM and 0.099 µM.
In the case of `COc1cc2c(Oc3ccc(CC(=O)N/N=C/c4ccccc4)cc3F)ccnc2cc1OCCCN1CCC(C)CC1`, the IC50 in assay [1] came out at 0.34 µM; in assay [2] it was 0.81 µM; in assay [3], 0.97 µM; in assay [4], 2.12 µM; in assay [5], 0.17 µM.
For `COc1cc2c(Oc3ccc(CC(=O)N/N=C(/C)c4ccccc4)cc3F)ccnc2cc1OCCCN1CCC(C)CC1`, in that order: 0.39 µM, 0.95 µM, 1.48 µM, 2.69 µM and 0.2 µM.
Turning to `COc1cc2c(Oc3ccc(CC(=O)N/N=C/c4ccc(O)cc4)cc3F)ccnc2cc1OCCCN1CCOCC1`, the 50% inhibitory concentration (IC50) was 0.56 µM in assay [1]; 1.3 µM in assay [2]; 1.7 µM in assay [3]; 3.22 µM in assay [4]; 0.31 µM in assay [5].
On to `COc1ccc(/C=N/NC(=O)Cc2ccc(Oc3ccnc4cc(OCCCN5CCOCC5)c(OC)cc34)c(F)c2)cc1`, for which the IC50 in assay [1] worked out at 0.96 µM; in assay [2] it was 1.72 µM; in assay [3], 2.65 µM; in assay [4], 3.91 µM; in assay [5], 0.45 µM.
Regarding `COc1cc(/C=N/NC(=O)Cc2ccc(Oc3ccnc4cc(OCCCN5CCOCC5)c(OC)cc34)c(F)c2)ccc1O`, the IC50 in assay [1] turned out to be 2.98 µM; in assay [2], 3.94 µM; in assay [3] it was 5.86 µM; in assay [4] it was 11.2 µM; in assay [5] it was 1.17 µM.
On to `COc1cc2c(Oc3ccc(CC(=O)N/N=C/c4ccc(O)c(Br)c4)cc3F)ccnc2cc1OCCCN1CCOCC1`, for which the values for the IC50 in assay [1], in assay [2] and in assay [5] were 2.54 µM, 3.67 µM and 1.08 µM, respectively.
For the molecule `COc1cc2c(Oc3ccc(CC(=O)N/N=C/c4ccc(S(C)(=O)=O)cc4)cc3F)ccnc2cc1OCCCN1CCOCC1`, the half-inhibitory concentration (IC50) in assay [1] worked out at 0.25 µM; in assay [2] it was 0.48 µM; in assay [3], 0.68 µM; in assay [4] it was 1.14 µM; in assay [5], 0.1 µM.
As to `COc1cc2c(Oc3ccc(CC(=O)N/N=C/c4ccc(OC(F)(F)F)cc4)cc3F)ccnc2cc1OCCCN1CCOCC1`, the IC50 amounted to 0.2 µM in assay [1]; 0.38 µM in assay [2]; 0.45 µM in assay [3]; 0.69 µM in assay [4]; 0.081 µM in assay [5].
The corresponding values for `COc1cc2c(Oc3ccc(CC(=O)N/N=C/c4ccc(C(F)(F)F)cc4)cc3F)ccnc2cc1OCCCN1CCOCC1` are 0.11 µM, 0.22 µM, 0.3 µM, 0.49 µM and 0.055 µM.
For `COc1cc2c(Oc3ccc(CC(=O)N/N=C/C(C)C)cc3F)ccnc2cc1OCCCN1CCOCC1`, the figures for the half-maximal inhibitory concentration (IC50) in assay [1], in assay [2] and in assay [5] were 23 µM, 25.2 µM and 7.14 µM, respectively.
On to `COc1cc2c(Oc3ccc(CC(=O)N/N=C/c4ccc(F)cc4)cc3F)ccnc2cc1OCCCN1CCCC1`, for which the concentration for half-maximal inhibition (IC50) in assay [1] came to 0.14 µM; in assay [2], 0.26 µM; in assay [3] it was 0.42 µM; in assay [4], 0.56 µM; in assay [5], 0.067 µM.
As to `COc1cc2c(Oc3ccc(CC(=O)N/N=C/c4ccc(Cl)cc4)cc3F)ccnc2cc1OCCCN1CCCC1`, the IC50 is 0.17 µM in assay [1]; 0.28 µM in assay [2]; 0.4 µM in assay [3]; 0.62 µM in assay [4]; 0.075 µM in assay [5].
With `COc1cc2c(Oc3ccc(CC(=O)N/N=C/c4ccccc4F)cc3F)ccnc2cc1OCCCN1CCCC1`, the 50% inhibitory concentration (IC50) in assay [1] was found to be 0.32 µM; in assay [2] it was 0.48 µM; in assay [3], 0.81 µM; in assay [4], 0.98 µM; in assay [5] it was 0.082 µM.
On to `COc1cc2c(Oc3ccc(CC(=O)N/N=C/c4ccc(OC(F)(F)F)cc4)cc3F)ccnc2cc1OCCCN1CCCC1`, for which the concentration for half-maximal inhibition (IC50) was 0.13 µM in assay [1]; 0.2 µM in assay [2]; 0.33 µM in assay [3]; 0.46 µM in assay [4]; 0.058 µM in assay [5].
`COc1cc2c(Oc3ccc(CC(=O)N/N=C/c4ccco4)cc3F)ccnc2cc1OCCCN1CCOCC1`: the IC50 was found to be 3.19 µM in assay [1], 2.78 µM in assay [2] and 0.88 µM in assay [5].
`COc1cc2c(Oc3ccc(CC(=O)N/N=C/c4ccc[nH]4)cc3F)ccnc2cc1OCCCN1CCOCC1`: the concentration for half-maximal inhibition (IC50) in assay [1] was determined as 1.22 µM; in assay [2], 2.36 µM; in assay [5], 0.76 µM.
As to `COc1cc2c(Oc3ccc(CC(=O)N/N=C/c4cccs4)cc3F)ccnc2cc1OCCCN1CCOCC1`, the IC50 turned out to be 0.39 µM in assay [1]; 0.96 µM in assay [2]; 1.15 µM in assay [3]; 1.82 µM in assay [4]; 0.28 µM in assay [5].
In the case of `COc1cc2c(Oc3ccc(CC(=O)N/N=C/c4ccncc4)cc3F)ccnc2cc1OCCCN1CCOCC1`, the half-inhibitory concentration (IC50) was 0.16 µM in assay [1]; 0.32 µM in assay [2]; 0.5 µM in assay [3]; 0.79 µM in assay [4]; 0.094 µM in assay [5].
On to `COc1cc2c(Oc3ccc(CC(=O)N/N=C(/C)c4ccc(F)cc4)cc3F)ccnc2cc1OCCCN1CCCC1`, for which the half-maximal inhibitory concentration (IC50) is 0.17 µM in assay [1]; 0.28 µM in assay [2]; 0.35 µM in assay [3]; 0.58 µM in assay [4]; 0.072 µM in assay [5].
Turning to `COc1cc2c(Oc3ccc(CC(=O)N/N=C(/C)c4ccc(Cl)cc4)cc3F)ccnc2cc1OCCCN1CCCC1`, the IC50 in assay [1] worked out at 0.19 µM; in assay [2], 0.29 µM; in assay [5], 0.083 µM.
Consider `COc1cc2c(Oc3ccc(CC(=O)N/N=C(/C)c4ccc(O)cc4)cc3F)ccnc2cc1OCCCN1CCCC1`, for which the 50% inhibitory concentration (IC50) in assay [1] is 0.41 µM; in assay [2], 0.78 µM; in assay [3] it was 1.16 µM; in assay [4], 1.68 µM; in assay [5] it was 0.18 µM.
With `COc1cc2c(Oc3ccc(CC(=O)N/N=C(/C)c4ccc(C(F)(F)F)cc4)cc3F)ccnc2cc1OCCCN1CCCC1`, the IC50 in assay [1] came to 0.096 µM; in assay [2] it was 0.19 µM; in assay [3], 0.37 µM; in assay [4], 0.42 µM; in assay [5], 0.046 µM.
With `COc1cc2c(Oc3ccc(CC(=O)N/N=C(/C)c4ccc(C(F)(F)F)cc4)cc3F)ccnc2cc1OCCCN1CCOCC1`, the concentration for half-maximal inhibition (IC50) in assay [1] was 0.17 µM; in assay [2], 0.26 µM; in assay [3] it was 0.39 µM; in assay [4] it was 0.59 µM; in assay [5], 0.071 µM.
For `COc1cc2c(Oc3ccc(CC(=O)N/N=C(/C)c4ccc(C(F)(F)F)cc4)cc3F)ccnc2cc1OCCCN1CCCCC1`, in that order: 0.29 µM, 0.45 µM, 0.59 µM, 0.94 µM and 0.13 µM.
Consider `COc1cc2c(Oc3ccc(CC(=O)N/N=C(/C)c4ccc(C(F)(F)F)cc4)cc3F)ccnc2cc1OCCCN1CCC(C)CC1`, for which the IC50 is 0.22 µM in assay [1]; 0.36 µM in assay [2]; 0.51 µM in assay [3]; 0.84 µM in assay [4]; 0.096 µM in assay [5].

For the origin of these results see ChEMBL document CHEMBL3352497, “Design and optimization of novel 4-(2-fluorophenoxy)quinoline derivatives bearing a hydrazone moiety as c-Met kinase inhibitors” (Eur J Med Chem, 2014).
